US10214531B2 (Institute for Drug Discovery, LLC, priority 2013, dated 2019)

Biological target: recombinant human AMCase (Homo sapiens, UniProt Q9BZP6)
Test: Human AMCase Activity Assay
Type: biochemical
Details: recombinant hAMCase, 4-methylumbelliferyl chitobioside substrate, citrate buffer pH 5.2, 37° C., 60 minutes; read-out: Activity (IC50 value key)
Protocol: Human AMCase Activity Assay
The assay was run in the 96-well plate format, each reaction in the total volume of 100 μl. 4-Methylumbelliferyl B-D-N,N′ diacetylchitobioside hydrate was used as a substrate for the enzyme. Upon hydrolysis by AMCase, the substrate releases 4-methylumbelliferyl (4MU), when ionized in basic pH, emits fluorescence of 460 nm.
Briefly, 40 μl of a substrate was added to each well, followed by 10 μl of compound dilution and 50 μl of hAMCase recombinant enzyme solution. The reaction was carried out in citrate buffer, pH 5.2, in the dark, at 37° C. for 60 minutes with shaking.

Sequence of recombinant human AMCase (Q9BZP6 22-476): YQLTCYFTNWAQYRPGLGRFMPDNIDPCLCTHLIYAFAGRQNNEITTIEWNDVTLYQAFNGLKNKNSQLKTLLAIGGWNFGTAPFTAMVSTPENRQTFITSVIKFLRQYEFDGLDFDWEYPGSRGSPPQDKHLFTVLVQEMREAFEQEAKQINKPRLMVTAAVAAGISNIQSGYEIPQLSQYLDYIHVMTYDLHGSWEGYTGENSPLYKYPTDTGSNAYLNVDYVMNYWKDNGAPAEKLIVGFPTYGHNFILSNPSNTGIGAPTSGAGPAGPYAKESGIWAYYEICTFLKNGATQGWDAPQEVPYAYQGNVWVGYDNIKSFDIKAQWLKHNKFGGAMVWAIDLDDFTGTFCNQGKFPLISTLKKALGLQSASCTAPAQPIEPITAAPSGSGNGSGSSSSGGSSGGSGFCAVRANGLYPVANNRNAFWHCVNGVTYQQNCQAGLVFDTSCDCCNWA

SMILES | IC50 [µM]
Nc1n[nH]c(N2CCC(c3nnc(-c4ccc(F)cc4)o3)CC2)n1 [Example 43, 5-(4-(5-(4-fluorophenyl)-1,3,4-oxadiazol-2-yl)piperidin-1-yl)-1H-1,2,4-triazol-3-amine] | > 100
Nc1n[nH]c(N2CCN(C(=O)c3cc4ccccc4o3)CC2)n1 [Example 48, (4-(3-amino-1H-1,2,4-triazol-5-yl)piperazin-1-yl)(benzofuran-2-yl)methanone] | > 100
Nc1n[nH]c(N2CCC(C(=O)NCc3ccc(F)cc3)CC2)n1 [Example 49, 1-(3-amino-1H-1,2,4-triazol-5-yl)-N-(4-fluorobenzyl)piperidine-4-carboxamide] | > 100
Nc1n[nH]c(N2CCC(C(=O)NCc3ccc(F)cc3C(F)(F)F)CC2)n1 [Example 50, 1-(3-amino-1H-1,2,4-triazol-5-yl)-N-(4-fluoro-2-(trifluoromethyl)benzyl)piperidine-4-carboxamide] | > 100
Nc1n[nH]c(N2CCC(C(=O)NCc3ccccc3F)CC2)n1 [Example 51, 1-(3-amino-1H-1,2,4-triazol-5-yl)-N-(2-fluorobenzyl)piperidine-4-carboxamide] | > 100
Nc1n[nH]c(N2CCC(C(=O)NCc3ccc(Cl)cc3)CC2)n1 [Example 52, 1-(3-amino-1H-1,2,4-triazol-5-yl)-N-(4-chlorobenzyl)piperidine-4-carboxamide] | > 100
Nc1n[nH]c(N2CCC(C(=O)NCc3ccccc3Br)CC2)n1 [Example 53, 1-(3-amino-1H-1,2,4-triazol-5-yl)-N-(2-bromobenzyl)piperidine-4-carboxamide] | > 100
Nc1n[nH]c(N2CCC(C(=O)NCc3ccc(F)c(C(F)(F)F)c3)CC2)n1 [Example 54, 1-(3-amino-1H-1,2,4-triazol-5-yl)-N-(4-fluoro-3-(trifluoromethyl)benzyl)piperidine-4-carboxamide] | > 100
Nc1n[nH]c(N2CCC(NS(=O)(=O)Cc3cccc(F)c3)CC2)n1 [Example 56, N-(1-(3-amino-1H-1,2,4-triazol-5-yl)piperidin-4-yl)-1-(3-fluorophenyl)methanesulfonamide] | 10 to 100
Nc1n[nH]c(N2CCC(NS(=O)(=O)Cc3ccc(F)cc3)CC2)n1 [Example 57, N-(1-(3-amino-1H-1,2,4-triazol-5-yl)piperidin-4-yl)-1-(4-fluorophenyl)methanesulfonamide] | 10 to 100
Nc1n[nH]c(N2CCC(NS(=O)(=O)Cc3cc(Cl)cc(Cl)c3)CC2)n1 [Example 58, N-(1-(3-amino-1H-1,2,4-triazol-5-yl)piperidin-4-yl)-1-(3,5-dichlorophenyl)methanesulfonamide] | 1 to 10
Nc1n[nH]c(N2CCC(NS(=O)(=O)Cc3cccc(Cl)c3)CC2)n1 [Example 59, N-(1-(3-amino-1H-1,2,4-triazol-5-yl)piperidin-4-yl)-1-(3-chlorophenyl)methanesulfonamide] | 1 to 10

Results, then the compound that gave them:

IC50 [µM] | SMILES
> 100 | CC(Oc1ccccc1F)C(=O)N1CCN(c2nc(N)n[nH]2)CC1 (centres unmarked) [Example 44, 1-(4-(3-amino-1H-1,2,4-triazol-5-yl)piperazin-1-yl)-2-(2-fluorophenoxy)propan-1-one]
> 100 | Cc1ccc(OC(C)C(=O)N2CCN(c3nc(N)n[nH]3)CC2)c(Cl)c1 (centres unmarked) [Example 45, 1-(4-(3-amino-1H-1,2,4-triazol-5-yl)piperazin-1-yl)-2-(2-chloro-4-methylphenoxy)propan-1-one]
> 100 | Nc1n[nH]c(N2CCN(C(=O)OCc3ccccc3)CC2)n1 [Example 47, benzyl 4-(3-amino-1H-1,2,4-triazol-5-yl)piperazine-1-carboxylate]
10 to 100 | CCC(CN1CCN(c2nc(N)n[nH]2)CC1)Oc1ccc(Br)cc1 (centres unmarked) [Example 60, 5-(4-(2-(4-bromophenoxy)butyl)piperazin-1-yl)-1H-1,2,4-triazol-3-amine]
1 to 10 | C[C@H](CN1CCN(c2nc(N)n[nH]2)CC1)Oc1ccc(Br)cc1 [Example 61, (R)-5-(4-(2-(4-bromophenoxy)propyl)piperazin-1-yl)-1H-1,2,4-triazol-3-amine]
